# Measured values as given in the NIST ThermoML archive (doi:10.1016/j.fluid.2005.08.018).
# “And” between values parts separate entries of the source, which are not always exact repeats. Equal values may be shown once. Numbers after ± are expanded uncertainties.
# Assay: activity coefficient (dimensionless); of the first substance listed, at infinite dilution; xn = mol fraction of the nth substance listed
# Details: Liquid, x1 = 0
# [1] = 303.15 K, comparative tensimetry
# [2] = 308.15 K, comparative tensimetry
# [3] = 313.15 K, comparative tensimetry
# [4] = 318.15 K, comparative tensimetry
# [5] = 323.15 K, comparative tensimetry
# [6] = 328.15 K, comparative tensimetry
# [7] = 333.15 K, comparative tensimetry
# [8] = 372.15 K, circulating still method
# [9] = 358.15 K, circulating still method
# [10] = 363.15 K, circulating still method
# [11] = 368.15 K, circulating still method
Compound,"activity coefficient (273.35 K, headspace analysis)","activity coefficient (283.15 K, headspace analysis)","activity coefficient (293.15 K, headspace analysis)",activity coefficient [1],activity coefficient [2],activity coefficient [3],activity coefficient [4],activity coefficient [5],activity coefficient [6],activity coefficient [7],activity coefficient [8],activity coefficient [9],activity coefficient [10],activity coefficient [11],further results
CCCCO [butan-1-ol] + O,32.6 ± 1,40.4 ± 1.2,48.4 ± 1.5,53.4 ± 1.6,57.2 ± 1.7,58.9 ± 1.8,60.2 ± 1.8,61.5 ± 1.8,62.8 ± 1.9,63.4 ± 1.9,56.1 ± 1.7,,,,"activity coefficient (323.15 K, headspace analysis): 58.7 and 59.4"
CCO [ethanol] + O,2.54 ± 0.08,3.13 ± 0.09,,4.14 ± 0.12,4.43 ± 0.13,4.66 ± 0.14,4.85 ± 0.15,5.03 ± 0.15,5.2 ± 0.16,5.3 ± 0.16,6.2 ± 0.2,5.9 ± 0.2,6 ± 0.2,6.1 ± 0.2,
CO [methanol] + O,1.23 ± 0.04,1.4 ± 0.04,1.55 ± 0.05,1.71 ± 0.05,1.8 ± 0.05,1.88 ± 0.06,1.95 ± 0.06,2.02 ± 0.06,2.09 ± 0.06,2.16 ± 0.07,,,,,"activity coefficient (358.15 K, circulation still method): 2.31 ± 0.07; activity coefficient (363.15 K, circulation still method): 2.38 ± 0.07; activity coefficient (368.15 K, circulation still method): 2.41 ± 0.07; activity coefficient (372.15 K, circulation still method): 2.4 ± 0.07"
CCCCCO [pentan-1-ol] + O,121 ± 4,156 ± 5,184 ± 6,,,,,,,,,,181 ± 5,,"activity coefficient (303.15 K, inert gas stripping): 203 ± 6; activity coefficient (313.15 K, inert gas stripping): 221 ± 7; activity coefficient (323.15 K, inert gas stripping): 230 ± 7; activity coefficient (333.15 K, Rayleigh distillation): 221 ± 7; activity coefficient (343.15 K, Rayleigh distillation): 206 ± 6; activity coefficient (353.15 K, circulating still method): 203 ± 6; activity coefficient (371.15 K, circulating still method): 169 ± 5"
CCCO [propan-1-ol] + O,8.9 ± 0.3,11.2 ± 0.3,13.5 ± 0.4,15.3 ± 0.5,16.1 ± 0.5,16.7 ± 0.5,17.5 ± 0.5,18.1 ± 0.5,18.6 ± 0.6,19 ± 0.6,18.9 ± 0.6,20.1 ± 0.6,19.5 ± 0.6,18.7 ± 0.6,
